The text below walks through data of patent US8455530B2, “Crystalline form of an alkoxyimidazol-1-ylmethyl biphenyl carboxylic acid” (Theravance, Inc., priority 2008, dated 2013).

Molecules are shown by their SMILES. “Also recorded” adds a separate entry of the source. Structures can show the parent of a compound that is named as a salt.

For series [1], the target named is T1, human AT1 receptor (Homo sapiens, UniProt P30556).
T1 construct: expressed in transfected cells; membrane preparation
T1 sequence (P30556 1-359): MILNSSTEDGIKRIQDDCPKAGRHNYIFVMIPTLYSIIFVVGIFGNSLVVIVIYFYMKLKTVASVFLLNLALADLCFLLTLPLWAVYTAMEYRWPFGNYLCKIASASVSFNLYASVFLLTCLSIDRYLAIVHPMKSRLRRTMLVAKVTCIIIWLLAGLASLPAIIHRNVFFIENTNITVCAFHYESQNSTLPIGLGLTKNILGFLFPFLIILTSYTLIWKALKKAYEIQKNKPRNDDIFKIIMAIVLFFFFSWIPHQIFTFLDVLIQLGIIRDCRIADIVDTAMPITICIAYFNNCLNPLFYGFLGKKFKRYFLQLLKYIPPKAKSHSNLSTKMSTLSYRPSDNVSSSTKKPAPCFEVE
The experiment in a line: AT1 radioligand binding assay ([Eu]AngII displacement). The following applies: [Eu]AngII at 2 nM, membranes of CHO-K1 cells expressing human AT1; read-out: pKi at the AT1 receptor (converted). The procedure:
These in vitro assays were used to assess the ability of test compounds to bind to the AT1 and the AT2 receptors.
Membrane Preparation From Cells Expressing Human AT1 or AT2 Receptors
Chinese hamster ovary (CHO-K1) derived cell lines stably expressing the cloned human AT1 or AT2 receptors, respectively, were grown in HAM's-F12 medium supplemented with 10% fetal bovine serum, 10 μg/ml penicillin/streptomycin, and 500 μg/ml geneticin in a 5% CO2 humidified incubator at 37° C. AT2 receptor expressing cells were grown in the additional presence of 100 nM PD123,319 (AT2 antagonist). When cultures reached 80-95% confluence, the cells were washed thoroughly in PBS and lifted with 5 mM EDTA. Cells were pelleted by centrifugation and snap frozen in MeOH-dry ice and stored at −80° C. until further use.
For membrane preparation, cell pellets were resuspended in lysis buffer (25 mM Tris/HCl pH 7.5 at 4° C., 1 mM EDTA, and one tablet of Complete Protease Inhibitor Cocktail Tablets with 2 mM EDTA per 50 mL buffer (Roche cat.#1697498, Roche Molecular Biochemicals, Indianapolis, Ind.)) and homogenized using a tight-fitting Dounce glass homogenizer (10 strokes) on ice. The homogenate was centrifuged at 1000×g, the supernatant was collected and centrifuged at 20,000×g. […] Protein concentration of the membrane suspension was determined by the method described in Bradford (1976) Anal Biochem. 72:248-54. […]

The nature of series [2]: Thermal stability (heating at 60° C.). The series is classed as physicochemical. The procedure: A sample of the crystalline form prepared as in Example 6 was heated at 60° C. for 5 days. The sample lost only 2% of its purity, thus the crystalline compound of the invention has excellent thermal stability.
Series [3] can be described thus: Solid state stability assessment (storage, HPLC purity). The note with it: for change in chemical purity after 28 days of storage at 40° C.: HPLC. The series is classed as physicochemical. The procedure: Samples of the crystalline freebase prepared as in Example 7, about 100 mg each, were stored in multiple vials at 5° C. (closed container), 25° C. (closed container), and at 40° C. (closed container). At specific intervals, the entire contents of a representative vial was analyzed by the following HPLC method:
Column: Agilent Zorbox SB-C18, 4.6×250 mm, 5 μm (Part No. 880975-902). Mobile Phase A: 80% H2O, 20% MeCN, 0.01% TFA. Mobile Phase B: 80% MeCN, 20% H2O, 0.01% TFA. Flow rate: 1 mL/min. Injection Volume: 20 μL. Detector: 250 nm.
The purity of the samples was determined by HPLC area percentage (% AUC).

Test in series [4]: as above
The series is classed as physicochemical. The following applies: for purity at time 0: HPLC area percentage.

Series [5] is described as follows: Dynamic moisture sorption (DMS) assessment. The series is classed as physicochemical. As to the method:
A dynamic moisture sorption (DMS) assessment (also known as a moisture sorption-desorption profile) was performed for a sample of the crystalline form of Example 2 using a VTI atmospheric microbalance, SGA-100 system (VTI Corp., Hialeah, Fla. 33016). A sample size of approximately 4.27 mg was used and the humidity was set at the ambient value at the start of the analysis. The DMS analysis consisted of a scan rate of 5% RH/step over the full humidity range of 2% relative humidity (RH) to 90% RH. The DMS run was performed isothermally at 25° C.

Series [6] can be described thus: Differential scanning calorimetry (thermal stability). The series is classed as physicochemical. The note with it: 10° C./min from 22° C. to 250° C.; listed as crystalline compound of the invention. The procedure: Differential scanning calorimetry (DSC) was performed using a TA Instruments Model Q-100 module with a Thermal Analyst controller. Data were collected and analyzed using TA Instruments Thermal Solutions software. A 1.64 mg sample of the crystalline form of Example 2 was accurately weighed into a covered aluminum pan. After a 5 minute isothermal equilibration period at 22° C., the sample was heated using a linear heating ramp of 10° C./min from 22° C. to 250° C.
In general terms: In DSC, transitions show as peaks or steps in heat flow.

The nature of series [7]: Micronization with a jet mill, particle size distribution. Format: physicochemical. The source says:
A sample of the crystalline freebase prepared as in Example 7 was micronized with a jet mill to give a free-flowing white powder. No issues were encountered during the micronization process.

The mark [8] stands for this setting: closed container, listed as amorphous freebase.
[9] abbreviates: closed container, listed as crystalline freebase.
Where [10] appears, read: all conditions: 5° C., 25° C. and 40° C., closed container.

As for `CCOc1nc(CC)c(CNC(=O)[C@@H](S)CC(C)C)n1Cc1ccc(-c2ccccc2C(=O)O)cc1F` [Example 1, 4′-{2-Ethoxy-4-ethyl-5-[((S)-2-mercapto-4-methylpentanoylamino)methyl]imidazol-1-ylmethyl}-3′-fluorobiphenyl-2-carboxylic Acid], the Ki in series [1] is less than 100 nM. For the same compound, in series [2] (heated at 60° C. for 1 day), the loss of purity entry was “about 50%”. For the same compound, the “purity after 14 days at 40° C.” value in series [3] (setting [8]) was 82.4 % AUC. Also, the “change in chemical purity after 28 days of storage at 40° C.” value (“change in chemical purity … at 40° C.” below) in series [3] (28 days at 40° C., listed as amorphous freebase) is listed as “decline in purity”. Further, the “purity after 7 days at 40° C.” value in series [4] (setting [8]) amounted to 86.8 % AUC. Further, in series [4] (listed as amorphous freebase), the “purity at time 0” value amounted to 97.5 % AUC.

As to `CCOc1nc(CC)c(CNC(=O)[C@@H](S)CC(C)C)n1Cc1ccc(-c2ccccc2C(=O)O)cc1F` [Example 2, 4′-{2-Ethoxy-4-ethyl-5-[((S)-2-mercapto-4-methylpentanoylamino)methyl]imidazol-1-ylmethyl}-3′-fluorobiphenyl-2-carboxylic Acid], in series [5] (unmicronized), the “weight gain in the humidity range of 40-75% RH” value is “less than 1%”. In addition, in series [5] (up to 75% RH, 25° C.), the “weight gain when exposed to up to 75% relative humidity” value is on record as “less than 1%”. Besides, the “thermal decomposition (DSC thermograph)” value in series [6] was “no significant thermal decomposition below about 150 °C”.

For `CCOc1nc(CC)c(CNC(=O)[C@@H](S)CC(C)C)n1Cc1ccc(-c2ccccc2C(=O)O)cc1F` [Example 6, 4′-{2-Ethoxy-4-ethyl-5-[((S)-2-mercapto-4-methylpentanoylamino)methyl]imidazol-1-ylmethyl}-3′-fluorobiphenyl-2-carboxylic Acid], the loss of purity in series [2] (heated at 60° C. for 5 days) is recorded as 2%.

Regarding `CCOc1nc(CC)c(CNC(=O)[C@@H](S)CC(C)C)n1Cc1ccc(-c2ccccc2C(=O)O)cc1F` [Example 7, 4′-{2-Ethoxy-4-ethyl-5-[((S)-2-mercapto-4-methylpentanoylamino)methyl]imidazol-1-ylmethyl}-3′-fluorobiphenyl-2-carboxylic Acid], the “weight gain in the humidity range of 40-75% RH” value in series [5] (micronized material) was 0.7%. Also, the “purity after 14 days at 40° C.” value in series [3] (setting [9]) stood at 98.3 % AUC. For the same compound, the “change in chemical purity … at 40° C.” value in series [3] (28 days at 40° C., listed as crystalline freebase) is “no detectable change in chemical purity; also recorded: minimal chemical degradation”. Further, in series [3] (setting [10]), the “change in chemical purity after 28 days of storage” value is “no detectable change in chemical purity”. Also, in series [7] (Post-Micronization), the “particle size D (v, 0.1)” value stood at 0.79 μm; the “particle size D (v, 0.5)” value is 2.59 μm; the “particle size D (v, 0.9)” value is listed as 7.07 μm. In series [7] (Pre-Micronization), the “particle size D (v, 0.1)” value is 1.73 μm; the “particle size D (v, 0.5)” value is 11.32 μm; the “particle size D (v, 0.9)” value was 50.73 μm. In series [4] (setting [9]), the “purity after 7 days at 40° C.” value is reported as 98.4 % AUC. In series [4] (28 days at 40° C., closed container, listed as crystalline freebase), the “purity after 28 days at 40° C.” value turned out to be 98.4 % AUC. For the same compound, the “purity at time 0” value in series [4] (listed as crystalline freebase) stood at 98.5 % AUC. Also, the “change in the appearance of the material after 28 days of storage” value in series [4] (setting [10]) is “no observable change in the appearance”.

Regarding `CCOc1nc(CC)c(CNC(=O)[C@@H](S)CC(C)C)n1Cc1ccc(-c2ccccc2C(=O)O)cc1F` [amorphous TFA salt, 4′-{2-ethoxy-4-ethyl-5-[((S)-2-mercapto-4-methylpentanoyl-amino)methyl]imidazol-1-ylmethyl}-3′-fluorobiphenyl-2-carboxylic acid], in series [3] (closed container), the “purity after 14 days at 40° C.” value is reported as 62.2 % AUC. Also, the “change in chemical purity … at 40° C.” value in series [3] (28 days at 40° C.) is “decline in purity”. For the same compound, the “purity after 28 days at 40° C.” value in series [3] (28 days at 40° C., closed container) was determined as 47.1 % AUC. The “purity at time 0” value in series [3] (HPLC area percentage, time 0) was determined as 97.7 % AUC. Also, in series [4] (closed container), the “purity after 7 days at 40° C.” value stood at 73.5 % AUC.
